Measurements: article PMC10349193 (CPT: Pharmacometrics & Systems Pharmacology, 2023)
Converted amounts (≈) assume the structure as drawn. “And” between values parts separate entries of the source, which are not always exact repeats. Equal entries are not always repeated. Where two headings read alike, the source gives them in different places.

Tests used:
[1] = tested on: proximal tubular cells; details: Mech KiM; ref SimCYP library version 19; cited from earlier work
[2] = parameters: method as in SimCYP library version 19; details: ref SimCYP library version 19, cited from earlier work
[3] = model input; ref SimCYP library version 19; cited from earlier work
[4] = tested on: CYP2D6; details: ref SimCYP library version 19, cited from earlier work
[5] = tested on: SLC22A2; details: basal, ref SimCYP library version 19, cited from earlier work
[6] = tested on: ABCC4; details: apical, ref SimCYP library version 19, cited from earlier work
[7] = tested on: SLC22A8; details: basal, ref SimCYP library version 19, cited from earlier work
[8] = model input; ref SimCYP library version 19; cited from earlier work; remark: listed apart in the source
[9] = tested on: SLC47As; details: apical, ref SimCYP library version 19, cited from earlier work
[10] = tested on: Caco-2; details: ref SimCYP library version 19, cited from earlier work
[11] = tested on: CYP3A4; parameters: method as in SimCYP library version 19; details: ref SimCYP library version 19, cited from earlier work
[12] = model input; ref SimCYP library version 19; cited from earlier work; remark: listed apart in the source
[13] = tested on: CYP2B6; parameters: method as in SimCYP library version 19; details: ref SimCYP library version 19, cited from earlier work
[14] = tested on: CYP2B6; details: ref SimCYP library version 19, cited from earlier work
[15] = tested on: CYP1A2; parameters: method as in SimCYP library version 19; details: ref SimCYP library version 19, cited from earlier work; for CYP1A2 CLint: recombinant enzyme kinetics
[16] = ref SimCYP library version 19, cited from earlier work; for Volume [Vsac] / kin / kout: single adjusting compartment; for Vss: minimal PBPK model
[17] = tested on: CYP2A6; details: ref SimCYP library version 19, cited from earlier work
[18] = tested on: CYP2C19; details: ref SimCYP library version 19, cited from earlier work
[19] = tested on: CYP3A4; details: cited from earlier work
[20] = tested on: CYP3A4; details: ref NCT01468714, cited from earlier work; for Increase of PB‐201 systemic exposure on co‐administration with ketoconazole: clinical DDI study, strong CYP3A4 inhibitor
[21] = tested on: CYP2C9; details: ref SimCYP library version 19, cited from earlier work
[22] = tested on: CYP3A5; parameters: method as in SimCYP library version 19; details: ref SimCYP library version 19, cited from earlier work
[23] = tested on: CYP2C8; parameters: method as in SimCYP library version 19; details: ref SimCYP library version 19, cited from earlier work
[24] = tested on: MDCK II; details: fluvoxamine file with reference compounds; ref SimCYP library version 19; cited from earlier work
[25] = Apparent permeability in Caco-2 monolayers; type: in vitro ADME; details: human, Caco‐2, 10 μM; for Papp A→B at 2 h, 10 μM: read-out: P app,AP→BL, without inhibitor; for Papp B→A at 2 h, 10 μM: read-out: P app,BL→AP, without inhibitor; for efflux ratio at 2 h, 10 μM: read-out: Efflux ratio P app,BL→AP/AP→BL, without inhibitor
[26] = tested on: T1, P-gp; assay: P-gp substrate assessment in Caco-2 monolayers with verapamil; type: in vitro ADME; details: human, Caco-2, with verapamil (concentration not stated); for Papp A→B at 2 h, 10 μM: read-out: P app,AP→BL, with inhibitor; for Papp B→A at 2 h, 10 μM: read-out: P app,BL→AP, with inhibitor
T1 construct: endogenous in cells; host or cells: Caco-2

[27] = target: T2, P-gp (Homo sapiens, UniProt P08183); assay: as above; type: in vitro ADME; details: Caco-2, with verapamil (concentration not stated), read-out: Efflux ratio P app,BL→AP/AP→BL, with inhibitor
T2 construct: endogenous in cells; host or cells: Caco-2

[28] = tested on: CYP3A4; assay: Clinical DDI study of PB-201 with ketoconazole (NCT01468714); type: in vivo, human; details: inferred from clinical DDI study with strong CYP3A inhibitor
[29] = physchem
[30] = tested on: OATP1B3; parameters: method as in unpublished; details: ref unpublished; cited from earlier work
[31] = Allometric scaling of clearance; details: rats, dogs, and monkeys; clearance (intravenous), body weight, plasma unbound fraction
[32] = Clinical pharmacokinetic studies of PB-201; type: in vivo; details: humans
[33] = Physicochemical properties
[34] = cited from earlier work
[35] = tested on: OATP1B1; parameters: method as in unpublished; details: ref unpublished; cited from earlier work
[36] = cited from earlier work; remark: listed apart in the source
[37] = parameters: method as in earlier work; details: bile duct‐cannulated rats; cited from earlier work
[38] = competitive inhibition, unit inferred

T2 sequence (P08183 whole entry): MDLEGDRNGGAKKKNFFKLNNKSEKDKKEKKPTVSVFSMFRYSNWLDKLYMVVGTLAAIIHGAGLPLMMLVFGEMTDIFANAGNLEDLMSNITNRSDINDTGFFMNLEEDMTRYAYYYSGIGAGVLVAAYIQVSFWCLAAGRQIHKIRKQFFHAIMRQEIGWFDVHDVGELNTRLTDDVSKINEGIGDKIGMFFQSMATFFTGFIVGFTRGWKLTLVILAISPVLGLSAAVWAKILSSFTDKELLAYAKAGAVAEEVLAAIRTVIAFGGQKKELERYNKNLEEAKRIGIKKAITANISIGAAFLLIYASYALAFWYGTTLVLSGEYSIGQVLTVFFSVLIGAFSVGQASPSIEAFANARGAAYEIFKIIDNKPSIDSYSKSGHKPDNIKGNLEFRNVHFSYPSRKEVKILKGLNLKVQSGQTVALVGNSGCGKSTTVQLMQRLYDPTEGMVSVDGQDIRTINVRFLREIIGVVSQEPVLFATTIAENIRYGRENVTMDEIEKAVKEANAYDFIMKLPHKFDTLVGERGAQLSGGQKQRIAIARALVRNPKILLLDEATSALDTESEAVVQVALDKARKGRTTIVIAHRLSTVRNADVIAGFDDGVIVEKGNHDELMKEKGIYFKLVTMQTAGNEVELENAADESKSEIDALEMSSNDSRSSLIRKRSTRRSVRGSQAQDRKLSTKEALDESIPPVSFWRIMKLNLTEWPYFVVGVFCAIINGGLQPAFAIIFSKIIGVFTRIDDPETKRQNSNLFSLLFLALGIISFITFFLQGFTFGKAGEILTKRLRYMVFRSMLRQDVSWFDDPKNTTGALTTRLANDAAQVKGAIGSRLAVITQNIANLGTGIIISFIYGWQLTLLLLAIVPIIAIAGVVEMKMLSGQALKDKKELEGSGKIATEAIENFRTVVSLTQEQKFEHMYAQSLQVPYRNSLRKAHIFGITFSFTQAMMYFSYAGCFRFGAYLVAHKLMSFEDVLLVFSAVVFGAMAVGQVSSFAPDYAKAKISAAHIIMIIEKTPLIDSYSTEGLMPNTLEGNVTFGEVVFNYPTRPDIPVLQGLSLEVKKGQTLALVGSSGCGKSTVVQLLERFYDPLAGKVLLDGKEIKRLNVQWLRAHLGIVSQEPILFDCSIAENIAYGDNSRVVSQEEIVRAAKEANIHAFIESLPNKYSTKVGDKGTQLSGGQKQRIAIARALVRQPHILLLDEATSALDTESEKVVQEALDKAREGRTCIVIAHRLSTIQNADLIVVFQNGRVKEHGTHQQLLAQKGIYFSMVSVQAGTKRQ

## CN/C(=N/CCSCc1nc[nH]c1C)NC#N [Cimetidine]
[1]
  CLPD,apical: 2.61E-05 mL/min/million proximal tubular cells
  CLPD,basal: 2.61E-05 mL/min/million proximal tubular cells
  fuKidney cell: 1
  fuUrine: 1
[2]
  CLR: 31.6 L/h
[3]
  Lag time: 0.15/28 h
  fa: 0.92/30
  fuGut: 1
  ka: 0.7/18 1/h
[4]; read-out: CYP2D6 Ki, competitive inhibition
  Ki: 3500 nM
[4]
  fumic (CYP2D6 inhibition): 1
[5]
  SLC22A2 Jmax: 2170
[5]; read-out: SLC22A2 Km
  Km: 72.6 µM
[6]
  ABCC4 Jmax: 216
[6]; read-out: ABCC4 Km
  Km: 18.2 µM
[7]
  SLC22A8 Jmax: 1232
[7]; read-out: SLC22A8 Km
  Km: 162 µM
[8]
  Fraction unbound in plasma: 0.8
[9]
  SLC47As Jmax: 135.5
[9]; read-out: SLC47As Km
  Km: 7.7 µM
[10]; Caco-2 pH 6.5: pH 7.4, references of fluconazole file, unit not given
  Reference compound Papp: 3.06

## O=C1Nc2ccc(Cl)cc2[C@@](C#CC2CC2)(C(F)(F)F)O1 [Efavirenz]
[11]; recombinant enzyme kinetics
  CYP3A4 CLint: […]
[11]
  fumic (CYP3A4 metabolism): […]
[3]
  Lag time: […]
  fa: […]
  fuGut: […]
  ka: […]
[8]
  Fraction unbound in plasma: […]
[12]
  Log P: 4.02
  PSA: 38.33 A^2
[13]; induction
  CYP2B6 Indmax: […]
[13]; induction, read-out: CYP2B6 IndC50
  EC50: […]
[13]
  fuinc (CYP2B6 induction): […]
[14]; recombinant enzyme kinetics
  CYP2B6 CLint: 1.36 μL/min/pmol of isoform
[14]
  fumic (CYP2B6 metabolism): […]
[15]
  CYP1A2 CLint: […]
  fumic (CYP1A2 metabolism): […]
[16]
  Volume [Vsac]: […]
  kin: […]
  kout: […]
[17]; recombinant enzyme kinetics
  CYP2A6 CLint: […]
[17]
  fumic (CYP2A6 metabolism): […]

## OC(Cn1cncn1)(Cn1cncn1)c1ccc(F)cc1F [Fluconazole]
[18]; read-out: CYP2C19 Ki, competitive inhibition
  Ki: 2000 nM
[18]
  fumic (CYP2C19 inhibition): 1
[2]
  CLR: 0.86 L/h
[10]; pH 6.5: pH 7.4, Passive&Active, fluconazole file
  Caco-2 Papp: 29.8 10^-6 cm/s
[16]
  Vss: 0.76 L/kg
  Volume [Vsac]: 1e-05 L/kg

## CCC(C)n1ncn(-c2ccc(N3CCN(c4ccc(OCC5COC(Cn6cncn6)(c6ccc(Cl)cc6Cl)O5)cc4)CC3)cc2)c1=O (stereo not shown) [Itraconazole]
[11]; recombinant enzyme kinetics
  CYP3A4 Vmax: 0.065 pmol/min/pmol of isoform
[11]
  fumic (CYP3A4 metabolism): 1
[3]
  Lag time: 0/30 h
  QGut: 18.32/12
  fa: 0.59/30
  fuGut: 0.016
  ka: 0.6/30 1/h
[8]
  Fraction unbound in plasma: 0.016
[12]
  Log P: 4.47
[19]; ref SimCYP library version 19
  fumic (CYP3A4 inhibition): 1
[15]
  CYP1A2 CLint: 1/1 μL/min/pmol
  fumic (CYP1A2 metabolism): 1/1
[16]
  Volume [Vsac]: 1e-05 L/kg
  kin: 0 h⁻¹

## CC(=O)N1CCN(c2ccc(OCC3COC(Cn4ccnc4)(c4ccc(Cl)cc4Cl)O3)cc2)CC1 (stereo not shown) [Ketoconazole]
[2]; in vivo clearance
  CLpo: […]
[2]
  CLR: […]
[3]
  Lag time: […]
  fa: […]
  fuGut: […]
  ka: […]
[20]
  Increase of PB‐201 systemic exposure on co‐administration with ketoconazole: […]
[8]
  Fraction unbound in plasma: 0.029
[21]; read-out: CYP2C9 Ki, competitive inhibition
  Ki: […]
[21]
  fumic (CYP2C9 inhibition): […]
[22]; [38]
  Ki: […]
[22]
  fumic (CYP3A5 inhibition): […]
[12]
  PSA: 69.06 A^2
[19]
  Ki: […]
  fumic (CYP3A4 inhibition): […]
[16]
  Vss: 0.345 L/kg
[23]; [38]
  Ki: […]
[23]
  fumic (CYP2C8 inhibition): […]

## COCCc1ccc(OCC(O)CNC(C)C)cc1 (stereo not shown) [Metoprolol]
[24]
  MDCK II Papp: 29.6 10^-6 cm/s
[10]; pH 7.4: pH 7.4, Passive&Active, erythromycin file with reference compounds
  Caco-2 Papp: 145 10^-6 cm/s

## CC(C)(C)NCC(O)COc1cccc2c1CC(O)C(O)C2 (stereo not shown) [Nadolol]
[25]
  Papp A→B at 2 h, 10 μM: 0.721 ×10⁻⁶ cm/s
  Papp B→A at 2 h, 10 μM: 0.634 ×10⁻⁶ cm/s
  efflux ratio at 2 h, 10 μM: 0.88
[26]
  Papp A→B at 2 h, 10 μM: 0.657 ×10⁻⁶ cm/s
  Papp B→A at 2 h, 10 μM: 0.364 ×10⁻⁶ cm/s
[27]
  efflux ratio at 2 h, 10 μM: 0.554

## Cc1cnc(NC(=O)c2cc(Oc3cnc(C(=O)N(C)C)nc3)c3cc(C)oc3c2)cn1 [PB‐201, N,N‐dimethyl‐5‐(2‐methyl‐6‐((5‐methylpyrazin‐2‐yl)‐carbamoyl) benzofuran‐4‐yloxy)pyrimidine‐2‐carboxamide]
[28]
  f m of CYP2C9 in vivo: less than 25%
[29]
  solubility: ~3 µg/mL (≈ 6.94 µM)
[20]
  Increase of PB‐201 systemic exposure on co‐administration with ketoconazole: about 26.4%
[20]; humans, fasted state, from clinical DDI study
  Contribution (f m) of CYP3A4 to PB‐201 elimination in vivo: ~ 26.4% and 26.4%
[30]
  OATP1B3 substrate assessment: not a specific substrate
[31]
  Allometric exponent (b): about 0.74
[32]; human, urine, oral, from a clinical trial, source Measured, read-out: Typical renal clearance (converted)
  CL renal: 1.65 mL/min
[32]; assuming bioavailability 68% and body weight ~76.89 kg
  Observed distribution volume: 1.983 L/kg
[33]
  logP: 1.38
  pKa: 10.4
[34]; fed (NCT01513928) vs fasted (NCT01272804), same dose, ref NCT01513928
  Food effect on systemic exposure: significantly increase
[34]; humans, 100 mg, ref NCT01044537
  Volume of distribution based on the terminal phase: ~ 254.4 L
[34]; humans, after multiple doses, ref NCT01272804
  Time (median) to reach maximum plasma concentration: 2 to 3 h
[34]; humans, ref NCT01272804
  Unchanged drug in the urine: < 1%
[35]
  OATP1B1 substrate assessment: not a specific substrate
[36]; clinical studies, exposure‐response relationship, ref unpublished
  Overall total incidence of hypoglycemia: about 3%
[36]; dose range of 3–640 mg
  Safety and tolerability in clinical studies: safe and tolerable
[37]
  Contribution of biliary excretion to elimination: about 2.3%

## CC(=O)O[C@H]1C(=O)[C@@]2(C)[C@H]([C@H](OC(=O)c3ccccc3)[C@]3(O)C[C@H](OC(=O)[C@H](O)[C@@H](NC(=O)c4ccccc4)c4ccccc4)C(C)=C1C3(C)C)[C@]1(OC(C)=O)CO[C@@H]1C[C@@H]2O [Taxol]
[25]
  Papp A→B at 2 h, 10 μM: 0.0798 ×10⁻⁶ cm/s
  Papp B→A at 2 h, 10 μM: 0.56 ×10⁻⁶ cm/s
  efflux ratio at 2 h, 10 μM: 7.02
[26]
  Papp A→B at 2 h, 10 μM: 1.17 ×10⁻⁶ cm/s
  Papp B→A at 2 h, 10 μM: 1.28 ×10⁻⁶ cm/s
[27]
  efflux ratio at 2 h, 10 μM: 1.09
